Assay [1] has as its system Aedes aegypti L1 larvae. The assay can be described thus: Activity against larvae of Aedes aegypti (L1 larvae, 384-well, image-based mortality). The settings on record: read-out: EC50 (percentage of mortality, A. aegypti L1 larvae). The method, then: Example 3: Screening Method to Test Activity of Compounds of Formula (I) Against Larvae of Aedes aegypti
Eight A. aegypti L1 larvae in a total volume of 64 μL water were added to 384-well microplates containing compounds formulated in 100% DMSO. The plates were incubated for 48 h at 27° C. Individual well images were acquired and analyzed using a pipeline to quantitatively assess the amount of larvae biomass accumulating at the bottom of the well. The efficacy of a compound at a given dose is expressed as “percentage of mortality” and determined by comparison to average biomass descriptors of positive and negative control wells containing 1.0 μM Fipronil or DMSO only, respectively. Dose response assay were conducted to determine an EC50 value.

Assay [2] concerns adult Ctenocephalides felis fleas. The experiment in a line: Contact activity against adult Ctenocephalides felis (treated surface, motility by machine vision, 24 h). The settings on record: treated surface, 24h, read-out: EC80 (% motility reduction, adult C. felis, contact). From the text: Example 7: Screening Method to Test Contact Activity of Compounds of Formula (I) Against Adult Ctenocephalides felis

Assay [3] has as its system Plutella xylostella. The assay can be described thus: Insecticidal test on Plutella xylostella (Chinese cabbage seedling dip). The settings on record: 144 h, 500 ppm, seedling dip, 6 days after dip treatment, read-out: activity level (corrected mortality rate), Plutella xylostella. An outline of the steps:
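Compounds dispersed in water at 500 ppm; Chinese cabbage seedlings bearing eggs laid by released adults over 2 days were dipped ~30 s, air-dried and kept at 25° C. Dead and live insects counted 6 days later; corrected mortality versus untreated plot scored A (100%), B (90–99%), C (80–89%), D (50–79%).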

Assay [4] relates to adult Ctenocephalides felis fleas. The experiment in a line: Ingestion activity (flea membrane feeding, blood feeding) against adult Ctenocephalides felis. The settings on record: Ctenocephalides felis.
Assay [5] relates to Spodoptera litura 2nd-instar larvae. The experiment in a line: Insecticidal test on Spodoptera litura (cabbage leaf dip). The settings on record: foliar, 192 h, 8 days after inoculation, read-out: activity level (corrected mortality rate), Spodoptera litura. The method, then:
Example 11: Insecticidal Test on Spodoptera litura
The compounds of formula (I) of the present invention or salts thereof were separately dispersed in water and diluted to 500 ppm. Cabbage leaves were dipped in the dispersion for about 30 seconds. After air dried, the leaves were placed in a plastic Petri dish with a diameter of 9 cm and inoculated with ten 2nd-instar larvae of Spodoptera litura, after which the dish was closed and then allowed to stand in a room at 25° C. 8 days after the inoculation, the numbers of the dead and alive insects were counted. The corrected mortality rate was calculated according to the following formula and the insecticidal activity was evaluated according to the following criteria. Corrected mortality rate (%)=100×(Survival rate in an untreated plot−Survival rate in a treated plot)/Survival rate in an untreated plot • A: the corrected mortality rate is 100% • B: the corrected mortality rate is 90 to 99% • C: the corrected mortality rate is 80 to 89% • D: the corrected mortality rate is 50 to 79%

Assay [6] has as its system Myzus persicae. The experiment in a line: Insecticidal test on Myzus persicae (foliar application on potted Chinese cabbage). Particulars: 144 h, read-out: control efficacy level (control rate), Myzus persicae. From the text:
Example 14: Insecticidal Test on Myzus persicae
The compounds of formula (I) of the present invention or salts thereof were separately dispersed in water and diluted to 500 ppm. Chinese cabbage plants were planted in plastic pots (diameter: 8 cm, height: 8 cm). Aphids (Myzus persicae) were propagated on the plants and then the number of surviving aphids was counted. The dispersion was applied to the foliage of the potted plants. After the plants were air dried, these were kept in a greenhouse. 6 days after the application, the number of the alive insects was counted on the plants. The control rate was calculated according to the following formula and the control efficacy was evaluated according to the following criteria. Control rate (%)=100−{(T×Ca)/(Ta×C)}×100 • Ta: the number of alive insects before the foliar application in a treated plot • T: the number of alive insects after the foliar application in a treated plot • Ca: the number of alive insects before the foliar application in an untreated plot • C: the number of alive insects after the foliar application in an untreated plot • A: the control rate is 100% • B: the control rate is 90 to 99% • C: the control rate is 80 to 89% • D: the control rate is 50 to 79%

Assay [7] has as its system Laodelphax striatellus 3rd-instar nymphs. The assay can be described thus: Insecticidal test on Laodelphax striatellus (rice seedling dip). The settings on record: 192 h, 500 ppm, seedling dip, 8 days after inoculation, read-out: activity level (corrected mortality rate), Laodelphax striatellus. The method, then: Example 13: Insecticidal Test on Laodelphax striatellus
The compounds of formula (I) of the present invention or salts thereof were separately dispersed in water and diluted to 500 ppm. Rice plant seedlings were dipped in the dispersion for about 30 seconds. After air dried, the seedlings were put into a separate glass test tube and inoculated with ten 3rd-instar nymphs of Laodelphax striatellus and then the glass test tube was kept in a room at 25° C. 8 days after the inoculation, the numbers of the dead and alive insects were counted. The corrected mortality rate was calculated according to the following formula and the insecticidal activity was evaluated according to the following criteria. Corrected mortality rate (%)=100×(Survival rate in an untreated plot−Survival rate in a treated plot)/Survival rate in an untreated plot • A: the corrected mortality rate is 100% • B: the corrected mortality rate is 90 to 99% • C: the corrected mortality rate is 80 to 89% • D: the corrected mortality rate is 50 to 79%

Assay [8] deals with adult Rhipicephalus sanguineus ticks. The experiment in a line: Contact activity against adult Rhipicephalus sanguineus (coated vial, mortality at 48 h). The settings on record: Rhipicephalus sanguineus. The procedure, abridged:
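Compound in acetone/0.02% Triton X-100 coated onto glass vial walls and cap filter paper; after drying, ten adult ticks added per vial. Held at 24° C, 95% relative humidity, 12 h light/dark cycle. Mortality scored visually at 48 hours; EC50 derived from a dose-response series.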

The mark [9] stands for this setting: bovine blood, 24h post treatment, read-out: EC80 (% motility reduction, adult C. felis, ingestion via membrane feeding).
Where [10] appears, read: 500 ppm, foliar application, 6 days after application.
Setting [11] is: 24 h, flea membrane feeding (ingestion, blood feeding) assay, EC80, read-out: C. felis membrane feeding (ingestion/blood feeding) activity EC80.
Where [12] appears, read: 48 hours post-treatment, coated vial, read-out: EC50 (percentage mortality, adult R. sanguineus, contact).
The mark [13] stands for this setting: contact assay, >100 μM = not active at the top concentration, read-out: R. sanguineus contact activity EC50.

Each structure is given as a SMILES string. Like-named read-outs stand apart in the source and are kept apart here. A value given as a limit tells only on which side of the number the result lay.

For `CCS(=O)(=O)c1cc(-c2ccc(C3CC3)cc2)cnc1-c1nc2cc(S(=O)(=O)C(F)(F)F)ccc2n1C` [Compound 42, 2-[5-(4-cyclopropylphenyl)-3-(ethanesulfonyl)pyridin-2-yl]-1-methyl-5-trifluoromethanesulfonyl-1,3-benzodiazole], the EC50 in assay [1] (48 h at 27° C., 384-well) is less than 0.04 µM. Besides, the EC80 in assay [2] and in assay [4] (setting [9]) was 1 to 10 µM each time. For the same molecule, the mortality at 500 ppm in assay [3] and in assay [5] was 100% throughout.
For `CCS(=O)(=O)c1cc(-c2ccc(C3CC3)nc2)cnc1-c1ccc(OCC(F)(F)C(F)(F)F)cn1` [Compound 123, 6′-cyclopropyl-5-(ethanesulfonyl)-6-[5-(2,2,3,3,3-pentafluoropropoxy)pyridin-2-yl]-3,3′-bipyridine], in assay [6] (foliar), the pest or weed control at 500 ppm is 100%. For the same molecule, the mortality at 500 ppm in assay [3], in assay [7] and in assay [5] was 100% each time.
Consider `CCS(=O)(=O)c1cc(-c2cc(C3CC3)ccn2)cnc1-c1nc2cc(C(F)(F)C(F)(F)F)cnc2n1C` [Compound 182, 4-cyclopropyl-5′-(ethanesulfonyl)-6′-[3-methyl-6-(1,1,2,2,2-pentafluoroethyl)-3H-imidazo[4,5-b]pyridin-2-yl]-2,3′-bipyridine], for which, in assay [6] (foliar), the pest or weed control at 500 ppm is 100%. For the same molecule, the mortality at 500 ppm in assay [3], in assay [7] and in assay [5] was 100% in each case. Also, the EC80 in assay [4] (24 h, read-out: EC80 (% motility reduction, adult C. felis, ingestion via membrane feeding)) was less than 1 µM. Moreover, the EC50 in assay [8] (48 h, read-out: EC50 (percentage mortality, adult R. sanguineus, contact)) fell in the range of 10 to 100 µM.
For `CCS(=O)(=O)c1cc(-c2ccc(C3CC3)cc2)cnc1-c1cc2n(CC3CC3)cc(C(F)(F)F)cc-2n1` [Compound 96, 2-[4-(cyclopropylmethyl)-6-(trifluoromethyl)pyrrolo[3,2-b]pyridin-2-yl]-5-(4-cyclopropylphenyl)-3-(ethanesulfonyl)pyridine], the pest or weed control at 500 ppm in assay [6] (setting [10]) came out at 100%. The mortality at 500 ppm in assay [3], in assay [7] and in assay [5] was 100% throughout. For the same molecule, in assay [4] (setting [11]), the EC80 lay within 1 to 10 µM. Moreover, the results for the EC50 in assay [8] (setting [12]) and in assay [8] (setting [13]) were less than 10 µM and 10 to 100 µM, respectively.
In the case of `CCS(=O)(=O)c1cc(-c2ccc(C3CC3)cc2)cnc1-c1nc2cc([S+]([O-])C(F)(F)F)ccc2n1C` (stereo not drawn) [Compound 43, 2-[5-(4-cyclopropylphenyl)-3-(ethanesulfonyl)pyridin-2-yl]-1-methyl-5-trifluoromethanesulfinyl-1,3-benzodiazole], the EC50 in assay [1] (48 h at 27° C., 384-well) is less than 0.04 µM. For the same molecule, the EC80 in assay [2] and in assay [4] (setting [9]) was 1 to 10 µM throughout. In assay [6] (setting [10]), the pest or weed control at 500 ppm was 100%. The mortality at 500 ppm in assay [3] and in assay [5] was 100% throughout.
Take `CCS(=O)(=O)c1cc(-c2ccc(C3CC3)cc2)cnc1-c1nc2cc(C(F)(F)F)n(C3CC3)c(=O)c2n1C` [Compound 45, 5-cyclopropyl-2-[5-(4-cyclopropylphenyl)-3-(ethanesulfonyl)pyridin-2-yl]-3-methyl-6-(trifluoromethyl)imidazo[4,5-c]pyridin-4-one]: the EC50 in assay [1] (48 h at 27° C., 384-well) was less than 0.04 µM; in assay [8] (setting [12]), less than 10 µM; in assay [8] (setting [13]), less than 10 µM. Besides, the pest or weed control at 500 ppm in assay [6] (setting [10]) was found to be 100%. Besides, the mortality at 500 ppm in assay [3], in assay [7] and in assay [5] was 100% each time. Besides, the EC80 in assay [4] (setting [11]) and in assay [4] (setting [9]) was 1 to 10 µM in each case.
As to `CCS(=O)(=O)c1cc(-c2ccc(C3(C#N)CC3)cc2)cnc1-c1ccc(OCC(F)(F)C(F)(F)F)cn1` [compound 128], in assay [2], the EC80 was 1 to 10 µM. The pest or weed control at 500 ppm in assay [6] (setting [10]) turned out to be 100%. Moreover, the mortality at 500 ppm in assay [3], in assay [7] and in assay [5] was 100% each time. Further, the EC50 in assay [8] (setting [12]) is less than 10 µM.
Turning to `CCS(=O)(=O)c1cc(-c2cccc(C3CC3)n2)cnc1-c1nc2cc(C(F)(F)C(F)(F)F)cnc2n1C` [compound 112], the EC50 in assay [1] (48 h at 27° C., 384-well) was less than 0.04 µM; in assay [8] (setting [12]), 10 to 100 µM; in assay [8] (setting [13]), 10 to 100 µM. In addition, the results for the EC80 in assay [2], in assay [4] (setting [11]) and in assay [4] (setting [9]) were less than 1 µM, 1 to 10 µM and 1 to 10 µM, respectively. Besides, the pest or weed control at 500 ppm in assay [6] (setting [10]) turned out to be 100%. Besides, the mortality at 500 ppm in assay [3] and in assay [5] was 100% throughout.
As for `CCS(=O)(=O)c1cc(-c2ccc(C3(C(F)(F)F)CC3)cc2)cnc1-c1nc2cc3c(cc2n1C)OC(F)(F)O3` [compound 129], the EC80 in assay [2] and in assay [4] (setting [9]) was 1 to 10 µM throughout. The mortality at 500 ppm in assay [3], in assay [7] and in assay [5] was 100% throughout.
As to `CCS(=O)(=O)c1cc(-c2nccc(C3CC3)n2)cnc1-c1nc2cc(C(F)(F)C(F)(F)F)nnc2n1C` [compound 143], the EC80 in assay [2] and in assay [4] (setting [9]) was less than 1 µM each time. In addition, the mortality at 500 ppm in assay [3], in assay [7] and in assay [5] was 100% throughout.
On to `CCS(=O)(=O)c1cc(-c2ccc(C3CC3)cc2)cnc1-c1nc2cc(C(C)(F)F)cnc2n1C` [Compound 194, 5-(4-cyclopropylphenyl)-2-[6-(1,1-difluoroethyl)-3-methylimidazo[4,5-b]pyridin-2-yl]-3-(ethanesulfonyl)pyridine], for which, in assay [6] (setting [10]), the pest or weed control at 500 ppm turned out to be 100%. Besides, the mortality at 500 ppm in assay [3], in assay [7] and in assay [5] was 100% each time. Moreover, the EC50 in assay [8] (setting [12]) lay in the range of 10 to 100 µM.
`CCS(=O)(=O)c1cc(-c2cccc(C3CC3)n2)cnc1-c1nc2cc(C(F)(F)C(F)(F)F)nnc2n1C` [Compound 3, 6-cyclopropyl-5′-(ethanesulfonyl)-6′-[7-methyl-3-(1,1,2,2,2-pentafluoroethyl)imidazo[4,5-c]pyridazin-6-yl]-2,3′-bipyridine]: in assay [1] (48 h), the EC50 was less than 0.04 µM. Moreover, the pest or weed control at 500 ppm in assay [6] (foliar) amounted to 100%. In addition, the mortality at 500 ppm in assay [3], in assay [7] and in assay [5] was 100% each time.

For orientation: EC50 means the concentration at which the effect is half-maximal. Broadly, the mortality is the percentage killed.
